Measurements: US20230219957A1, “SMALL MOLECULE CB002-ANALOGES RESTORE THE P53 PATHWAY AND TARGET S-PHASE CHECKPOINT” (Brown University, priority 2020, published 2023)

Experiments:
[1] = tested on: isogenic HCT116 cell line panel; experiment: Cell-Titer glow cytotoxicity, potency comparison across the panel; assay type: cell-based, human; settings: IC50 values, independently of HCT116 p53-status
Experimental: CellTiter-Glo® luminescent cell viability assay. Cells were seeded in 96-well plates at a density of 5×10^3 cells per well. 20 μL of CellTiter-Glo® Reagent was added directly to the wells, following the manufacturers protocol. The bioluminescence signal was determined using an IVIS imaging system, optionally at a period of 48-72 hours after treatment.
CB002-analog #4 is a potent anti-tumor agent in vitro and in vivo. The inventors focused on lead CB002-analog #4 and investigated its therapeutic index in vitro and in vivo. The inventors treated an isogenic HCT116 cell line panel with 100 μM CB002 or 25 μM CB002-analog #4 and established IC50 values by the Cell-Titer glow cytotoxicity assay. Across this panel, CB002-analog #4 has a 20-fold to 30-fold range in IC50 values, independently of the HCT116 p53-status.

SW480 tumor cells = experiment: Apoptosis markers (cleaved PARP immunoblot, Cyt-C immunofluorescence); assay type: cell-based, human
Experimental: Knockdown expression of p73, DR5, ATG5, or FADD using siRNA. A total of 1×10^5 cells/well were plated per well in a 12-well plate in medium with 10% FBS without antibiotic. Forward transfection of p73 siRNA (s14319, Ambion®, Ambion Inc., Austin, Tex., USA), DR5 (sc-40237, Santa Cruz Biotechnology), atg5 (137766, Ambion®, Ambion Inc., Austin, Tex., USA), or FADD (S16706, Ambion®, Ambion Inc., Austin, Tex., USA) was performed using the Lipofectamine® RNAiMAX Transfection Reagent (Life Technologies) and incubated for forty-eight hours before treatment, e.g., before drug treatments.
Immunoblotting (additional method). After treatment, floating cells were collected, and adherent cells were trypsinized, washed with phosphate-buffered saline, and lysed with RIPA buffer (Sigma-Aldrich, St. Louis, Mo., USA) for thirty minutes to one hour at 4° C. Protein lysates were pelleted. The supernatant was collected. Total protein per sample was determined using a Pierce™ BCA Protein Assay Kit (Thermo Fisher Scientific, Waltham, Mass., USA). Proteins were denatured using 1× NuPAGE® LDS sample buffer (Thermo Fisher Scientific, Waltham, Mass., USA) and reduced with 2-mercaptoethanol (Sigma-Aldrich, St. Louis, Mo., USA). Protein lysates were boiled for fifteen min at 95° C. After protein normalization, samples were loaded into NuPAGE™ Novex™ 4-12% Bis-Tris Protein Gels (Thermo Fisher Scientific, Waltham, Mass., USA). Gel electrophoresis was performed with NuPAGE™ MES SDS Running Buffer. […] Signal was detected using a chemiluminescent detection kit, followed by autoradiography. […]
Immunohistochemistry. […] Organoid viability imaging was determined by CellTrace™ Calcein Green (#C34852, Thermo Fisher Scientific, Waltham, Mass., USA), Ethidium Homodimer-1 (#E1169, Thermo Fisher Scientific, Waltham, Mass., USA), Ki67 incubated at 37° C. for one hour then washed with phosphate-buffered saline and imaged. […]

SMILES: Cn1c(=O)c2[nH]c(Nc3cccc(C(F)(F)F)c3)nc2n(C)c1=O [CB002-analog #4]
- potency relative to CB002 [1]: 20-30 times
- cleaved-PARP (SW480 tumor cells; SW480): increases cleaved-PARP
- cytochrome C release from the mitochondria to the cytosol (SW480 tumor cells; SW480, forty-eight hours): cytochrome C release from the mitochondria to the cytosol
- PARP cleavage under p73 knockdown (SW480 tumor cells; SW480, p73 siRNA): PARP cleavage occurred despite effective p73 knockdown
